Results as given in patent publication US7504117B2, “Extract of Nelumbinis Semen for the treatment of depression” (Purimed Co., Ltd., priority 2003, dated 2009).

Experiments:
Type in all cases: in vivo
[1] = tested on: 5-HT and NE neurotransmitters; experiment: 5-HT and NE levels in chronic CMS model by microdialysis and HPLC-ECD
Protocol: Also, according to a biochemical method, the therapeutic efficacy of a candidate drug was primarily examined by measuring changes in 5-HT and Norepinephrine (NE) levels in a chronic CMS model by microdialysis and HPLC-ECD. Catecholamine content was measured using an HPLC system equipped with an electrochemical detector. A mobile phase containing 0.05 M monobasic sodium phosphate, 0.1 N sodium acetic acetate and 1% methanol was adjusted to pH 4.4 with a phosphate buffer for HPLC. […] was composed of a Supelcosil LC-8-DB 3-μm column (150×4.6 mm, Supelco, Bellefonte, Pa.) protected by an LC-18 guard column.

[2] = tested on: CREB, BDNF and trkB genes; experiment: Oligonucleotide microarray gene expression in cerebral frontal cortex; details: depression-induced animal
From the text: Total RNA was isolated from the cerebral frontal cortex, and double-stranded cDNA was synthesized using the isolated RNA and an oligo (dT) 24-T7 primer. cRNA was synthesized by in vitro transcription using the synthesized cDNA, and was biotin-labeled and applied to an oligonucleotide microarray to determine gene expression patterns in each test group.

cortisol = experiment: Urinary cortisol concentration (125I-cortisol assay) in rats; details: rat urine
Protocol: First, changes in concentrations of cortisol, which is a representative marker to determine whether the immune suppression has been overcome, according to administration of the Nelumbinis Semen extract were examined, as follows. After urine samples were collected from rats,
(1) 1.0 ml of urine was placed into a tube with a cap, 2.0 ml dichloromethane was added to the tube, and the tube was covered with the cap with caution;
(2) the mixture was vortexed for 5-10 min;
(3) the mixture was centrifuged at 1500×g (rpm), the upper layer was aspirated, and 50 μl of the lower layer were aliquotted into coated tubes;
(4) samples were evaporated for dryness.
Urinary cortisol concentrations were measured as follows.
(1) The coated tubes were individually labeled with NSB, Std (A-F), a control (CON6 No. 5) and sample numbers (for NSB, a green tube was used).
(2) 25 μl of each of NSB, Std(A-F), a control (CON6 No. 5) and samples was added to the corresponding tube (free cortisol was added to the completely dried coated tube, and 25 μl of Std. A was added to the NSB tube).
(3) 1.0 ml of ^125I-cortisol was added to the tubes, followed by mixing.
(4) The tubes were incubated in a water bath at 37° C. for 45 min and aspirated.
(5) After the content of the tubes was completely aspirated, radioactivity was measured for at least 1 min using a […].

lymphocytes = experiment: Lymphocyte cell number in rat blood (automatic analyzer)
From the text: Fourthly, changes in cell number of lymphocytes, which is a representative marker to determine whether the immune suppression has been overcome, according to administration of the Nelumbinis Semen extract, was examined as follows. After blood samples were collected from rats, changes in lymphocyte cell number were examined by the following method.
When diluted blood corpuscles are suspended in an electrolyte solution (Isoton sol.) that is a separate […], the electrolyte suspension of particles is suctioned for 4 sec through an aperture with a predetermined size. The aperture is placed between an internal electrode and an external electrode, and a current flows between the electrodes. When particles pass through the aperture between the two electrodes, resistance increases while voltage decreases. The difference between decreased voltage and ground voltage is expressed as height by a threshold circuit. The number of pulses indicates the number of particles, and the amplitude of pulses is in proportion to the volume of corpulscles.
2. Assay Method: Automatic Analyzer
3. Machine Used: ADVIA120, Bayer, USA

IL-2 = experiment: Blood IL-2 concentration (luminometric immunoassay) in rats; details: rat blood
Protocol: (1) 100 μl of assay diluent QD6-23 were aliquotted onto a microplate strip;
(2) 50 μl of each sample and a standard were aliquotted onto the strip;
(3) the strip was incubated with shaking at room temperature for 2 hrs;
(4) the strip was washed four times;
(5) 200 μl of an IL-2 conjugate was aliquotted onto the strip, and the strip was incubated with shaking at room temperature for 3 hrs;
(6) 200 μl of a substrate (luminol+hydrogen peroxide) was aliquotted onto the strip, and the strip was incubated at room temperature for 20-40 min;
(7) emitted light was measured using a luminometer; and
(8) IL-2 concentrations were determined using a standard quantitative curve.

[3] = tested on: CREB, BDNF and trkB proteins; experiment: 2-DE of CREB, BDNF and trkB proteins in rat cerebral frontal cortex
Protocol: Fourthly, an increase in the antidepressive markers, CREB, BDNF and trkB proteins, was examined in the rat cerebral frontal cortex by 2-DE, as follows. A behavioral test in rats was carried out for a period of three weeks, and the rats were administered with each drug. The brain frontal cortex was excised and centrifuged, and the supernatant was recovered. Each sample was mixed with an IEF sample buffer and loaded onto an IEF gel. Proteins were separated according to isoelectric point by isoelectric focusing (IEF) in the first dimension and according to molecular weight by SDS-PAGE at 100-200 V for about 1-2 hrs in the second dimension. The gel was stained by a Gel-Code Blue staining method and evaluated for elevated or newly emerged proteins by the antidepressive substances. The elevated or newly emerged proteins by the antidepressive substances were subjected to mass spectrometry.

[4] = tested on: CREB, BDNF and trkB proteins; experiment: Western blotting of CREB, BDNF and trkB proteins in rat cerebral frontal cortex
Protocol: Thirdly, an increase in the antidepressive markers, CREB, BDNF and trkB proteins, was examined in the rat cerebral frontal cortex by Western blotting, as follows. A behavioral test in rats was carried out for a period of three weeks, and the rats were administered with each drug. The brain frontal cortex was excised and centrifuged, and the supernatant was recovered. Each sample was mixed with a SDS-PAGE sample buffer to reduce proteins and boiled to denature proteins. Samples were loaded onto a SDS-PAGE (sodium dodecyl sulfate poly acrylamide gel electrophoresis) gel and run at 100-200 V for about 1-2 hrs. The SDS-PAGE gel was transferred onto a PVDF or nitrocellulose membrane by electro-transferation. The membrane was incubated with a primary antibody for a target protein, washed and incubated with a secondary antibody. Then, the target protein was detected by an enhanced chemiluminescent method.

WBC = WBC counting in rat blood (volume, conductivity, light scattering)
Protocol: Thirdly, changes in WBC cell number, which is a representative marker to determine whether the immune suppression has been overcome, according to administration of the Nelumbinis Semen extract, was examined, as follows. After blood samples were collected from rats, cell volume, conductivity and light scattering were measured.
Cell volume was measured according to the Coulter Principle, which is universally recognized as a reference method for sizing of volumes. An aperture between two electrodes is placed in a cell flow, and direct current flows between the electrodes. When WBC maintained at nearly natural states passes through the aperture, electrical resistance to the direct current flow increases, thus generating a voltage pulse being in proportion to cell volumes. The size of the pulse is one of the distinct features allowing determination of the type of WBC. However, to distinguish between two types of cells with similar size, a different phenotype allowing the distinction of two types of cells should be measured. For example, mature basophils and small lymphocytes are about 9-12 jjm in diameter, and immature prolymphocytes and mature neutrophils are 12-14 μm in diameter. Different types of cells with similar size are difficult to determine based on only their size, and thus, in this case, conductivity and light scattering are simultaneously measured. […]

CNCCC(Oc1ccc(C(F)(F)F)cc1)c1ccccc1 (stereo not drawn) [Prozac, fluoxetine]
level of 5-HT [1]: significantly increase
level of NE [1]: significantly increase
expression level of BDNF gene [2]: significantly increase
expression level of CREB gene [2]: significantly increase
expression level of trkB gene [2]: significantly increase
cortisol concentrations (cortisol): levels similar to a normal group
cell number of lymphocytes (lymphocytes): levels similar to a normal group
IL-2 concentrations (IL-2): levels similar to a normal group
protein level of BDNF [3]: significantly increase
protein level of CREB [3]: significantly increase
protein level of trkB [3]: significantly increase
protein level of BDNF [4]: significantly increase
protein level of CREB [4]: significantly increase
protein level of trkB [4]: significantly increase
cell number of WBC (WBC): levels similar to a normal group
